Laboratory results taken from US11590139B2, “Substituted aminopurine compounds, compositions thereof, and methods of treatment therewith” (Signal Pharmaceuticals, LLC, priority 2014, dated 2023).

Tested on: Lox-IMVI melanoma cell line
Experiment: Lox-IMVI anti-proliferative assay (growth inhibition, Cell Titer-Glo)
Type: cell-based, human
Settings: Homo sapiens; IC50 activity level in the cell-based Lox-IMVI anti-proliferative assay; read-out: Activity
Method in brief: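 Lox-IMVI cells in RPMI+10% FBS exposed 72 h at 37 °C to 10-point, 3-fold dilutions (0.5 nM–10 μM; 0.2% DMSO final), in duplicate. Viability by Cell Titer-Glo luminescence, with a t0 cell-number reading; data as % of DMSO control; IC50 from a four-parameter logistic fit.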

IC50 [µM]	Structure (SMILES)
0.5 to 1	C[C@@H](CO)Nc1ncc2nc(Nc3c(Cl)cc(F)cc3Cl)n([C@H]3CC[C@@H](C(N)=O)CC3)c2n1 [Example 166, (1R,4s)-4-(8-(2,6-dichloro-4-fluorophenylamino)-2-((S)-1-hydroxypropan-2-ylamino)-9H-purin-9-yl)cyclohexanecarboxamide]
> 1	NC(=O)[C@H]1CC[C@@H](n2c(Nc3c(F)cc(Cl)cc3Cl)nc3cnc(N[C@H]4C[C@@H](O)C4)nc32)CC1 [Example 324, (1s,4s)-4-(8-(2,4-dichloro-6-fluorophenylamino)-2-((1s,3s)-3-hydroxycyclobutylamino)-9H-purin-9-yl)cyclohexanecarboxamide]
> 1	NC(=O)[C@H]1CC[C@@H](n2c(Nc3c(Cl)cc(Cl)cc3Cl)nc3cnc(N[C@H]4CCNC[C@H]4F)nc32)CC1 [Example 138, (1R,4s)-4-(2-((3R,4S)-3-fluoropiperidin-4-ylamino)-8-(2,4,6-trichlorophenylamino)-9H-purin-9-yl)cyclohexanecarboxamide]
> 1	NC(=O)[C@H]1CC[C@@H](n2c(Nc3c(F)cc(F)cc3Cl)nc3cnc(N[C@H]4CCCOC4)nc32)CC1 [Example 245, (1R,4s)-4-(8-(2-chloro-4,6-difluorophenylamino)-2-((S)-tetrahydro-2H-pyran-3-ylamino)-9H-purin-9-yl)cyclohexanecarboxamide]
> 1	CC(C)Nc1ncc2nc(Nc3c(F)cc(Cl)cc3F)n([C@H]3CC[C@@H](C(N)=O)CC3)c2n1 [Example 124, (1s,4s)-4-(8-(4-chloro-2,6-difluorophenylamino)-2-(isopropylamino)-9H-purin-9-yl)cyclohexanecarboxamide]
> 1	CC(C)Nc1ncc2nc(Nc3c(Cl)cccc3Cl)n([C@H]3CC[C@@H](C(N)=O)CC3)c2n1 [Example 52]
0.5 to 1	NC(=O)[C@H]1CC[C@@H](n2c(Nc3c(F)cc(Cl)cc3Cl)nc3cnc(N[C@H]4CCC[C@@H]4O)nc32)CC1 [Example 271, (1R,4s)-4-(8-(2,4-dichloro-6-fluorophenylamino)-2-((1S,2S)-2-hydroxycyclopentylamino)-9H-purin-9-yl)cyclohexanecarboxamide]
0.25 to 0.5	NC(=O)[C@H]1CC[C@@H](n2c(Nc3c(F)cc(F)cc3Cl)nc3cnc(NC4CCCC4)nc32)CC1 [Example 119, (1s,4s)-4-(8-(2-chloro-4,6-difluorophenylamino)-2-(cyclopentylamino)-9H-purin-9-yl)cyclohexanecarboxamide]
0.5 to 1	NC(=O)[C@H]1CC[C@@H](n2c(Nc3c(F)cc(F)cc3Cl)nc3cnc(NC4CCC4)nc32)CC1 [Example 117, (1s,4s)-4-(8-(2-chloro-4,6-difluorophenylamino)-2-(cyclobutylamino)-9H-purin-9-yl)cyclohexanecarboxamide]

The remaining lines, values behind:

Structure (SMILES)	IC50 [µM]
C[C@@H]1CC[C@@H](Nc2ncc3nc(Nc4c(F)cc(F)cc4F)n([C@H]4CC[C@@H](C(N)=O)CC4)c3n2)C[C@H]1O [Example 341, (1S,4s)-4-(2-((1R,3R,4R)-3-hydroxy-4-methylcyclohexylamino)-8-(2,4,6-trifluorophenylamino)-9H-purin-9-yl)cyclohexanecarboxamide]	> 1
NC(=O)[C@H]1CC[C@@H](n2c(Nc3c(F)cccc3F)nc3cnc(N[C@H]4CCOC[C@H]4F)nc32)CC1 [Example 305, (1R,4s)-4-(8-(2,6-difluorophenylamino)-2-((3S,4S)-3-fluorotetrahydro-2H-pyran-4-ylamino)-9H-purin-9-yl)cyclohexanecarboxamide]	0.5 to 1
NC(=O)[C@H]1CC[C@@H](n2c(Nc3c(F)cc(Cl)cc3Cl)nc3cnc(N[C@H]4CCCOC4)nc32)CC1 [Example 204, (1R,4s)-4-(8-(2,4-dichloro-6-fluorophenylamino)-2-((S)-tetrahydro-2H-pyran-3-ylamino)-9H-purin-9-yl)cyclohexanecarboxamide]	> 1
NC(=O)[C@H]1CC[C@@H](n2c(Nc3c(F)cc(Cl)cc3F)nc3cnc(NC4CC5(COC5)C4)nc32)CC1 [Example 176, (1s,4s)-4-(2-(2-oxaspiro[3.3]heptan-6-ylamino)-8-(4-chloro-2,6-difluorophenylamino)-9H-purin-9-yl)cyclohexanecarboxamide]	> 1
NC(=O)[C@H]1CC[C@@H](n2c(Nc3c(F)cc(Cl)cc3F)nc3cnc(NC4CCC(F)(F)CC4)nc32)CC1 [Example 200, (1s,4s)-4-(8-(4-chloro-2,6-difluorophenylamino)-2-(4,4-difluorocyclohexylamino)-9H-purin-9-yl)cyclohexanecarboxamide]	0.25 to 0.5
NC(=O)[C@H]1CC[C@@H](n2c(Nc3c(F)ccc(Cl)c3F)nc3cnc(N[C@@H]4CCC[C@H](O)C4)nc32)CC1 [Example 362, (1S,4s)-4-(8-(3-chloro-2,6-difluorophenylamino)-2-((1R,3S)-3-hydroxycyclohexylamino)-9H-purin-9-yl)cyclohexanecarboxamide]	> 1
C[C@@H]1CC[C@@H](Nc2ncc3nc(Nc4c(F)cccc4Cl)n([C@H]4CC[C@@H](C(N)=O)CC4)c3n2)C[C@H]1O [Example 342, (1S,4s)-4-(8-(2-chloro-6-fluorophenylamino)-2-((1R,3R,4R)-3-hydroxy-4-methylcyclohexylamino)-9H-purin-9-yl)cyclohexanecarboxamide]	> 1
NC(=O)[C@H]1CC[C@@H](n2c(Nc3c(F)cc(F)cc3F)nc3cnc(N[C@@H]4CC[C@H](O)C4)nc32)CC1 [Example 332, (1S,4s)-4-(2-((1R,3S)-3-hydroxycyclopentylamino)-8-(2,4,6-trifluorophenylamino)-9H-purin-9-yl)cyclohexanecarboxamide]	> 1

Same assay, conditions: Homo sapiens; Lox-IMVI anti-proliferative assay, IC50 activity level; read-out: Activity

IC50 [µM]	Structure (SMILES)
< 0.25	NC(=O)[C@H]1CC[C@@H](n2c(Nc3c(F)cc(Cl)cc3Cl)nc3cnc(N[C@@H]4CCC(F)(F)C4)nc32)CC1 [Example 592, (1S,4s)-4-(8-(2,4-dichloro-6-fluorophenylamino)-2-((R)-3,3-difluorocyclopentylamino)-9H-purin-9-yl)cyclohexanecarboxamide]
< 0.25	C[C@]1(C(N)=O)CC[C@@H](n2c(Nc3c(Cl)cc(Cl)cc3Cl)nc3cnc(N[C@@H]4CCC[C@H](O)C4)nc32)CC1 [Example 565, (1S,4s)-4-(2-((1R,3S)-3-hydroxycyclohexylamino)-8-(2,4,6-trichlorophenylamino)-9H-purin-9-yl)-1-methylcyclohexanecarboxamide]
> 1	NC(=O)[C@H]1CC[C@@H](n2c(Nc3c(F)cccc3Cl)nc3cnc(N[C@@H]4CCC[C@@H](O)C4)nc32)CC1 [Example 416, (1S,4s)-4-(8-(2-chloro-6-fluorophenylamino)-2-((1R,3R)-3-hydroxycyclohexylamino)-9H-purin-9-yl)cyclohexanecarboxamide]
> 1	NC(=O)[C@H]1CC[C@@H](n2c(Nc3c(Cl)cc(OC(F)(F)F)cc3Cl)nc3cnc(N[C@@H]4CCC[C@H](O)C4)nc32)CC1 [Example 595, (1S,4s)-4-(8-(2,6-dichloro-4-(trifluoromethoxy)phenylamino)-2-((1R,3S)-3-hydroxycyclohexylamino)-9H-purin-9-yl)cyclohexanecarboxamide]
> 1	C[C@]1(C(N)=O)CC[C@H](n2c(Nc3c(F)cc(F)cc3Cl)nc3cnc(NC4CCCC4)nc32)CC1 [Example 491, (1r,4r)-4-(8-(2-chloro-4,6-difluorophenylamino)-2-(cyclopentylamino)-9H-purin-9-yl)-1-methylcyclohexanecarboxamide]
> 1	NC(=O)[C@H]1CC[C@@H](n2c(Nc3c(F)cc(F)cc3F)nc3cnc(N[C@@H]4CCO[C@H](CO)C4)nc32)CC1 [Example 446, (1S,4s)-4-(2-((2S,4R)-2-(hydroxymethyl)tetrahydro-2H-pyran-4-ylamino)-8-(2,4,6-trifluorophenylamino)-9H-purin-9-yl)cyclohexanecarboxamide]
0.25 to 0.5	C[C@]1(C(N)=O)CC[C@@H](n2c(Nc3c(Cl)cc(Cl)cc3Cl)nc3cnc(NC4CCCC4)nc32)CC1 [Example 574, (1s,4s)-4-(2-(cyclopentylamino)-8-(2,4,6-trichlorophenylamino)-9H-purin-9-yl)-1-methylcyclohexanecarboxamide]

Same assay, conditions: Homo sapiens; Lox-IMVI melanoma cell line, anti-proliferative assay; read-out: Activity (IC50 activity level)

IC50 [µM]	Structure (SMILES)
> 1	N#Cc1cc(Cl)c(Nc2nc3cnc(NC[C@@H]4CCCC[C@@H]4O)nc3n2[C@H]2CC[C@@H](C(N)=O)CC2)c(Cl)c1 [Example 659, (1R,4s)-4-(8-(2,6-dichloro-4-cyanophenylamino)-2-(((1S,2S)-2-hydroxycyclohexyl)methylamino)-9H-purin-9-yl)cyclohexanecarboxamide]
< 0.25	C[C@@H]1COCC[C@@H]1Nc1ncc2nc(Nc3c(Cl)cc(C#N)cc3Cl)n([C@H]3CC[C@@](C)(C(N)=O)CC3)c2n1 [Example 763, (1S,4s)-4-(8-(2,6-dichloro-4-cyanophenylamino)-2-((3S,4R)-3-methyltetrahydro-2H-pyran-4-ylamino)-9H-purin-9-yl)-1-methylcyclohexanecarboxamide]
> 1	NC(=O)[C@H]1CC[C@@H](n2c(Nc3c(F)cc(F)cc3F)nc3cnc(N[C@@H]4CCCN(C(=O)Nc5ccccc5)C4)nc32)CC1 [Example 781, (R)-3-(9-((1s,4S)-4-carbamoylcyclohexyl)-8-(2,4,6-trifluorophenylamino)-9H-purin-2-ylamino)-N-phenylpiperidine-1-carboxamide]
< 0.25	C[C@]1(C(N)=O)CC[C@@H](n2c(Nc3c(F)cc(Cl)cc3Cl)nc3cnc(N[C@H]4CCOC[C@H]4F)nc32)CC1 [Example 716, (1R,4s)-4-(8-(2,4-dichloro-6-fluorophenylamino)-2-((3S,4S)-3-fluorotetrahydro-2H-pyran-4-ylamino)-9H-purin-9-yl)-1-methylcyclohexanecarboxamide]
> 1	Cc1ccc(S(=O)(=O)N2CCC[C@@H](Nc3ncc4nc(Nc5c(F)cc(Cl)cc5F)n([C@H]5CC[C@@H](C(N)=O)CC5)c4n3)C2)cc1 [Example 792, (1S,4s)-4-(8-(4-chloro-2,6-difluorophenylamino)-2-((R)-1-tosylpiperidin-3-ylamino)-9H-purin-9-yl)cyclohexanecarboxamide]
